Patent publication US20200317636A1, “DEUTERATED AZOLE COMPOUNDS AND PREPARATION METHOD THEREFOR AND USES THEREOF” (priority 2017, published 2020)
In brackets after ≈: the same amount, converted by molar mass. Read-outs that look alike come from different tables or passages of the source.

Assays:
[1] = system: Candida albicans (standard strain SC5314); assay: In vitro bacteriostatic experiment (minimum in vitro antifungal concentration, MIC80); type: cell-based
Experimental: (I) Experimental method: The conventional in vitro bacteriostatic experiment method was adopted (for details, see: Antimicrob Agents Chemother 1995, 39 (5): 1169).
The fungal strain selected for this experiment was provided by the Fungal Department of Shanghai Changzheng Hospital (or purchased from the Institute of Materia Medica, Chinese Academy of Sciences).
Candida albicans (standard strain SC5314)
Preparation of bacterial suspension: The above fungi were cultured in YEPD liquid medium at 35° C. for 16 hours, activated twice, counted with a blood cell counting plate, and the bacteria concentration was adjusted to 1*10^4 to 1*10^5 cells/mL with RPM1640 liquid medium.
Preparation of drug solution: The test compound of the invention was dissolved in dimethyl sulfoxide to prepare a 0.8 mg/mL drug storage solution, and the 0.8 mg/mL drug storage solution was diluted to 8 μg/mL with RPM1640 before the experiment.
Inoculation: RPM1640 100 μL was added as a blank control in well 1 of the 96-well plate; 100 μL of the bacterial suspension was added in each of wells 3-12, 200 μL of the bacterial suspension and 2 μL of the drug solution were added in well 2 and the drug solution in wells 2-11 was diluted […], and the drug concentrations of these wells were 8, 4, 2, 1, 0.5, 0.25, 0.125, 0.0625, 0.0313, and 0.0156 μg/mL, respectively. No drug solution was added in well 12 to make positive control. The drug control was fluconazole.

[2] = human, microsomes
in vitro = settings: human, microsomes
[3] = Candida albicans, SC5314, read-out: Minimum in vitro antifungal concentration (MIC80)

[2H]C(Oc1ccc(C#Cc2ccc(C(F)(F)[C@](O)(Cn3cnnn3)c3ccc(F)cc3F)nc2)cc1)c1ccc(C#N)cc1 (stereo partly drawn) [Compound D1]
MIC80 [1, 3]: 0.0156 µg/mL (≈ 0.0266 µM)

[2H]C([2H])(Oc1ccc(C#Cc2ccc(C(F)(F)[C@](O)(Cn3cnnn3)c3ccc(F)cc3F)nc2)cc1)c1ccc(C#N)cc1 [Compound D2]
MIC80 [1, 3]: 0.0156 µg/mL (≈ 0.0266 µM)

[2H]C([2H])(n1cnnn1)C(O)(c1ccc(F)cc1F)C(F)(F)c1ccc(C#Cc2ccc(OCc3ccc(C#N)cc3)cc2)cn1 (stereo not drawn) [Compound D3]
MIC80 [1, 3]: 0.0313 µg/mL (≈ 0.0534 µM)

[2H]c1nnnn1CC(O)(c1ccc(F)cc1F)C(F)(F)c1ccc(C#Cc2ccc(OCc3ccc(C#N)cc3)cc2)cn1 (stereo not drawn) [Compound D5]
MIC80 [1, 3]: 0.0156 µg/mL (≈ 0.0266 µM)

OC(Cn1cncn1)(Cn1cncn1)c1ccc(F)cc1F [Fluconazole]
MIC80 ([1]; Candida albicans SC5314, RPM1640 medium, 96-well dilution 8-0.0156 μg/mL, read-out: Minimum in vitro antifungal concentration (MIC80)): 0.5 µg/mL (≈ 1.63 µM)

Cc1ncc2n1-c1ccc(Cl)cc1C(c1ccccc1F)=NC2 [Midazolam]
CLint, microsome (in vitro intrinsic clearance) [2]: 274 μL × min^−1 × mg^−1 proteins
k (clearance constant) [2]: 0.0548 min⁻¹
half-life (in vitro): 0.212 h

N#Cc1ccc(COc2ccc(C#Cc3ccc(C(F)(F)[C@](O)(Cn4cnnn4)c4ccc(F)cc4F)nc3)cc2)cc1 [VT-1598]
MIC80 [1, 3]: 0.0156 µg/mL (≈ 0.0267 µM)
CLint, microsome (in vitro intrinsic clearance) [2]: 10.6 μL × min^−1 × mg^−1 proteins
k (clearance constant) [2]: 0.0053 min⁻¹
half-life at 1 μM (in vitro): 2.33 h
